How the values were obtained:
Details in all cases: human; call rule not given here
Hepatotoxicity [1] = assay: FDA HLAED, lactate dehydrogenase (LDH) increase
Hepatotoxicity [2] = assay: FDA HLAED, serum glutamic oxaloacetic transaminase (SGOT) increase
Hepatotoxicity [3] = assay: FDA HLAED, serum glutamic pyruvic transaminase (SGPT) increase
Hepatotoxicity [4] = assay: FDA HLAED, liver enzyme composite activity
Hepatotoxicity [5] = assay: FDA HLAED, alkaline phosphatase increase
Hepatotoxicity [6] = assay: FDA HLAED, gamma-glutamyl transferase (GGT) increase
For GGT Increase - Index Value in this document: reference of the scale not given here.
For LDH Increase - Index Value in this document: reference of the scale not given here.

SMILES | LDH Increase - Activity Score (Hepatotoxicity [1]) | LDH Increase - Index Value (Hepatotoxicity [1]) | LDH Increase - Number of Reports (Hepatotoxicity [1]) | SGOT Increase - Activity Score (Hepatotoxicity [2]) | SGOT Increase - Index Value (Hepatotoxicity [2]) | SGOT Increase - Number of Reports (Hepatotoxicity [2]) | SGPT Increase - Activity Score (Hepatotoxicity [3]) | SGPT Increase - Index Value (Hepatotoxicity [3]) | SGPT Increase - Number of Reports (Hepatotoxicity [3]) | Composite Activity - Active (Hepatotoxicity [4]) | Composite Activity - Marginal (Hepatotoxicity [4]) | Composite Activity - Score (Hepatotoxicity [4]) | Alkaline Phosphatase Increase - Activity Score (Hepatotoxicity [5]) | Alkaline Phosphatase Increase - Index Value (Hepatotoxicity [5]) | Alkaline Phosphatase Increase - Number of Reports (Hepatotoxicity [5]) | GGT Increase - Activity Score (Hepatotoxicity [6]) | GGT Increase - Index Value (Hepatotoxicity [6]) | GGT Increase - Number of Reports (Hepatotoxicity [6]) | also measured
CC(C)C(=O)Nc1ccc([N+](=O)[O-])c(C(F)(F)F)c1 [FLUTAMIDE] | Active | 8.4 | >= 4 | Active | 22.4 | >= 4 | Active | 20.2 | >= 4 | 5 | 0 | Active | Active | 16.8 | >= 4 | Active | 6.7 | >= 4 | 
C[C@@H]1C[C@H]2[C@@H]3C[C@H](F)C4=CC(=O)C=C[C@]4(C)[C@@]3(F)[C@@H](O)C[C@]2(C)[C@@]1(O)C(=O)SCF [FLUTICASONE] | Inactive | 0 | < 4 | Inactive | 0.8 | < 4 | Inactive | 0.8 | < 4 | 0 | 0 | Inactive | Inactive | 0 | < 4 | Inactive | 0 | < 4 | 
CC(C)n1c(/C=C/C(O)CC(O)CC(=O)O)c(-c2ccc(F)cc2)c2ccccc21 (stereo unspecified) [FLUVASTATIN] | Inactive | 0 | < 4 | Inactive | 1 | >= 4 | Inactive | 1 | >= 4 |  |  |  | Inactive | 0.5 | >= 4 | Inactive | 0.7 | >= 4 | Composite Activity - Active (Hepatotoxicity [4]; Liver): 0; Composite Activity - Marginal (Hepatotoxicity [4]; Liver): 0; Composite Activity - Score (Hepatotoxicity [4]; Liver): Inactive
COCCCC/C(=N\OCCN)c1ccc(C(F)(F)F)cc1 [FLUVOXAMINE] | Inactive | 2.1 | < 4 | Active | 8.9 | >= 4 | Active | 8.9 | >= 4 | 2 | 0 | Active | Inactive | 2.7 | >= 4 | Inactive | 1.4 | < 4 | 
O=C(O)P(=O)(O)O [FOSCARNET] | Active | 48.4 | >= 4 | Active | 121.1 | >= 4 | Active | 72.6 | >= 4 | 5 | 0 | Active | Active | 181.6 | >= 4 | Active | 36.3 | < 4 | 
C[C@@H]1O[C@@H]1P(=O)(O)O [FOSFOMYCIN] | Inactive | 0 | < 4 | Inactive | 0 | < 4 | Inactive | 0 | < 4 | 0 | 0 | Inactive | Inactive | 0 | < 4 | Inactive | 0 | < 4 | 
CCC(=O)O[C@@H](O[P@](=O)(CCCCc1ccccc1)CC(=O)N1C[C@H](C2CCCCC2)C[C@H]1C(=O)O)C(C)C [FOSINOPRIL] | Inactive | 0.6 | < 4 | Inactive | 1.5 | >= 4 | Inactive | 1.5 | >= 4 | 0 | 0 | Inactive | Inactive | 0.3 | < 4 | Inactive | 0.6 | < 4 | 
O=C1NC(c2ccccc2)(c2ccccc2)C(=O)N1COP(=O)(O)O [FOSPHENYTOIN] | Inactive | 0 | < 4 | Inactive | 0 | < 4 | Inactive | 0 | < 4 | 0 | 0 | Inactive | Inactive | 0 | < 4 | Inactive | 0 | < 4 | 
NCC1(CC(=O)O)CCCCC1 [GABAPENTIN] | Inactive | 0.4 | < 4 | Inactive | 0.8 | >= 4 | Inactive | 0.8 | >= 4 | 0 | 0 | Inactive | Inactive | 0.7 | >= 4 | Inactive | 0.7 | >= 4 | 
Nc1nc(O)c2ncn(COC(CO)CO)c2n1 [GANCICLOVIR] | Inactive | 1.9 | >= 4 | Inactive | 2.7 | >= 4 | Inactive | 2.3 | >= 4 | 1 | 0 | Inactive | Active | 4.2 | >= 4 | Inactive | 0.8 | < 4 | 
Nc1ccn([C@@H]2O[C@H](CO)[C@@H](O)C2(F)F)c(=O)n1 [GEMCITABINE] | Inactive | 1.4 | < 4 | Inactive | 1.4 | < 4 | Inactive | 1.4 | < 4 | 0 | 0 | Inactive | Inactive | 4.3 | < 4 | Inactive | 1.4 | < 4 | 
Cc1ccc(C)c(OCCCC(C)(C)C(=O)O)c1 [GEMFIBROZIL] | Inactive | 0 | < 4 | Inactive | 0 | < 4 | Inactive | 0 | < 4 | 0 | 0 | Inactive | Inactive | 0 | < 4 | Inactive | 0 | < 4 | 

From ChEMBL document CHEMBL1697781, “Assessment of the health effects of chemicals in humans: II. Construction of an adverse effects database for QSAR modeling” (Curr Drug Discov Technol, 2004)
